Measured values taken from article PMC6149679 (2017).

Legend:
[1] = system: poly A–poly U (RNA, polymer) A/U; assay: fluorescence titration (λexc 355 nm); conditions: Na+ (sodium cacodylate, I = 0.05 M); pH 7.0; no emission change
[2] = system: poly A–poly U (RNA, polymer) A/U; assay: thermal denaturation, absorbance at 260 nm; conditions: Na+ (sodium cacodylate, I = 0.05 M); pH 7.0; no stabilisation (error ± 0.5 °C); same at pH 5
[3] = system: poly AH+-poly AH+ (poly A at pH 5) (RNA, polymer, adenine protonated at pH 5) A; assay: fluorescence titration (λexc 355 nm); conditions: Na+ (sodium cacodylate, I = 0.05 M), emission of 2 did not change
poly A (RNA, polymer) A = assay: fluorescence titration (λexc 355 nm), Scatchard; conditions: Na+ (sodium cacodylate, I = 0.05 M); pH 7.0; n fixed at 0.2; polynucleotide as phosphates; per base
[4] = system: poly A–poly U (RNA, polymer) A/U; assay: fluorescence titration (λexc 355 nm), Scatchard; conditions: Na+ (sodium cacodylate, I = 0.05 M); pH 5.0; n fixed at 0.2; polynucleotide as phosphates; per base

| binding [1] | binding [2] | binding [3] | log Ks (poly A (RNA, polymer) A) | log Ks [4] | Structure (SMILES) |
| --- | --- | --- | --- | --- | --- |
| no | no | – | – | – | COC(=O)C(Cc1cc2cn(CCN3C(=O)c4ccccc4C3=O)c(=O)nc2[nH]1)NC(=O)CNC(=O)[C@H](N)CCCCNC(=O)c1ccc(C(=O)NC(=N)N)[nH]1 (stereo partly shown) |
| no | no | no | 4.1 | 3.5 | COC(=O)C(Cc1cc2cn(CCN3C(=O)c4ccccc4C3=O)c(=O)nc2[nH]1)NC(=O)CNC(=O)[C@@H](CCCCN)NC(=O)c1ccc(C(=O)NC(=N)N)[nH]1 (stereo partly shown) |
